# Target: T1, Kv3.1 (Homo sapiens, UniProt P48547)
# T1 construct: expressed in transfected cells
# T1 sequence (P48547 1-511): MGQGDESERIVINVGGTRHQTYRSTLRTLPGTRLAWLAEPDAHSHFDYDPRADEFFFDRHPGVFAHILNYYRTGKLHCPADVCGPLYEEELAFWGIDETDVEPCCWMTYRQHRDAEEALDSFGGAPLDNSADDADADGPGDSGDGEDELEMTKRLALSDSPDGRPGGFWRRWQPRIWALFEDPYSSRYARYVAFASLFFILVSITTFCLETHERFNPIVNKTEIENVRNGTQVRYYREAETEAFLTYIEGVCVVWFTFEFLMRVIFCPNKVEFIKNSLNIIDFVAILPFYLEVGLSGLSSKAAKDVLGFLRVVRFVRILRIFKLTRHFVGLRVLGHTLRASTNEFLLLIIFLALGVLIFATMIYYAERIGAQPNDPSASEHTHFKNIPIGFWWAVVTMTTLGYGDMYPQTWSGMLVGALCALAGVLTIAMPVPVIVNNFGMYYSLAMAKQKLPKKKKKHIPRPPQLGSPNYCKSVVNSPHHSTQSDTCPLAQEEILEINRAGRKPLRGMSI
# Test: Kv3.1 automated patch clamp (Qube) cellular electrophysiology assay
# Type: cell-based
# Conditions: not given
# Text: In vitro, high-throughput cellular electrophysiology was employed to detect voltage-dependence of compounds in single concentration screening and IC50 determination for library and medicinal chemistry profiling compounds in 384 well plates.
# HEK-293 cell lines stably expressing coding DNA for Kv3.1, 3.2, 3.3, and 3.4 were validated on an automated patch clamp (APC) platform, Qube from Sophion/Denmark. Cell cultures were maintained in DMEM cell growth media containing FBS and appropriate antibiotics at 37° C., 5% CO2 for a maximum of 20 passages. Intra- and extracellular (w. glucose) HEPES buffers containing various monovalent and divalent cations were adjusted to pH 7.2 and 7.4 respectively. Cells were harvested at 75% confluency and resuspended in extracellular buffer and added to wells. Negative pressure was applied to establish whole cell recording by APC.
# Currents through activated channels were measured directly by APC by employing depolarization voltage steps. Baseline currents were established for the voltage-dependence protocols using a −80 mV holding potential and multiple test pulses at +10 mV or by 10 mV steps from −80 mV to +40 mV, respectively. Test compounds were added after baseline recordings followed by a 10 min incubation, and voltage-dependency protocol recordings. Data was corrected for baseline and leak currents (well based) and normalized for % potentiation (plate based). Two previously reported Kv3 positive modulators of varying potencies were used for run to run and plate to plate quality controls. A non-selective and potent positive modulator was used as a positive control. Percent potentiation was analyzed at −20 mV of the voltage-dependency protocol and voltage shift in channel activation was analyzed using the voltage step protocol from −80 mV to +40 mV. Selectivity was assessed against Kv3.2, Kv3.3, and Kv3.4 overexpressing cell lines using similar methods.
row,SMILES,EC50 [µM]
1,"O=c1[nH]c2cccnc2n1-c1ccc(Oc2cccc3c2C2(CC2)CO3)nc1 [Example 1, 3-(6-spiro[2H-benzofuran-3,1′-cyclopropane]-4-yloxy-3-pyridyl)-1H-imidazo[4,5-b]pyridin-2-one]",0.3
2,"O=c1[nH]c2cncnc2n1-c1ccc(Oc2cccc3c2C2(CC2)CO3)nc1 [Example 2, 9-(6-spiro[2H-benzofuran-3,1′-cyclopropane]-4-yloxy-3-pyridyl)-7H-purin-8-one]",0.8
3,"Cc1ccc(Oc2ccc(-n3c(=O)[nH]c4cccnc43)cn2)cc1Cl [Example 3, 3-[6-(3-chloro-4-methyl-phenoxy)-3-pyridyl]-1H-imidazo[4,5-b]pyridin-2-one]",1.6
4,"CC(C)(C)c1cc(C#N)ccc1Oc1ccc(-n2c(=O)[nH]c3cccnc32)cn1 [Example 4, 3-tert-butyl-4-[[5-(2-oxo-1H-imidazo[4,5-b]pyridin-3-yl)-2-pyridyl]oxy]benzonitrile]",2
5,"CC(C)c1cc(Oc2ccc(-n3c(=O)[nH]c4cccnc43)cn2)ccc1C#N [Example 5, 2-isopropyl-4-[[5-(2-oxo-1H-imidazo[4,5-b]pyridin-3-yl)-2-pyridyl]oxy]benzonitrile]",2.7
6,"O=c1[nH]c2cnccc2n1-c1ccc(Oc2cccc3c2C2(CC2)CO3)nc1 [Example 6, 1-(6-spiro[2H-benzofuran-3,1′-cyclopropane]-4-yloxy-3-pyridyl)-3H-imidazo[4,5-c]pyridin-2-one]",2
7,"COc1cc(Oc2ccc(-n3c(=O)[nH]c4cc(F)cnc43)cn2)ccc1C [Example 7, 6-fluoro-3-[6-(3-methoxy-4-methyl-phenoxy)-3-pyridyl]-1H-imidazo[4,5-b]pyridin-2-one]",2.2
8,"O=c1[nH]c2cccnc2n1-c1ccc(Oc2cccc3c2C2(CC2)CO3)c(F)c1 [Example 8, 3-(3-fluoro-4-spiro[2H-benzofuran-3,1′-cyclopropane]-4-yloxy-phenyl)-1H-imidazo[4,5-b]pyridin-2-one]",2.3
9,"COc1cc(Oc2ccc(-n3c(=O)[nH]c4cc(C)cnc43)cn2)ccc1C [Example 9, 3-[6-(3-methoxy-4-methyl-phenoxy)-3-pyridyl]-6-methyl-1H-imidazo[4,5-b]pyridin-2-one]",2.5
10,"O=c1[nH]c2ccccc2n1-c1ccc(Oc2cccc3c2C2(CC2)CO3)nc1 [Example 10, 3-(6-spiro[2H-benzofuran-3,1′-cyclopropane]-4-yloxy-3-pyridyl)-1H-benzimidazol-2-one]",2.5
11,"Cc1cc(-n2c(=O)[nH]c3ccccc32)cnc1Oc1cccc2c1C1(CC1)CO2 [Example 11, 3-(5-methyl-6-spiro[2H-benzofuran-3,1′-cyclopropane]-4-yloxy-3-pyridyl)-1H-benzimidazol-2-one]",2.8
12,"O=c1[nH]c2ccncc2n1-c1ccc(Oc2cccc3c2C2(CC2)CO3)nc1 [Example 12, 3-(6-spiro[2H-benzofuran-3,1′-cyclopropane]-4-yloxy-3-pyridyl)-1H-imidazo[4,5-c]pyridin-2-one]",3.9
13,"O=c1[nH]c2ncccc2n1-c1ccc(Oc2cccc3c2C2(CC2)CO3)nc1 [Example 13, 1-(6-spiro[2H-benzofuran-3,1′-cyclopropane]-4-yloxy-3-pyridyl)-3H-imidazo[4,5-b]pyridin-2-one]",3.4
14,"CC(C)c1cc(Oc2ccc(-n3c(=O)[nH]c4cc(F)cnc43)cn2)ccc1C#N [Example 14, 4-[[5-(6-fluoro-2-oxo-1H-imidazo[4,5-b]pyridin-3-yl)-2-pyridyl]oxy]-2-isopropyl-benzonitrile]",2.7
15,"CC(C)c1cc(Oc2ccc(-n3c(=O)[nH]c4cncnc43)cn2)ccc1C#N [Example 15, 2-isopropyl-4-[[5-(8-oxo-7H-purin-9-yl)-2-pyridyl]oxy]benzonitrile]",3.5
16,"CC(C)c1cc(Oc2ccc(-n3c(=O)[nH]c4cnccc43)cn2)ccc1C#N [Example 16, 2-isopropyl-4-[[5-(2-oxo-3H-imidazo[4,5-c]pyridin-1-yl)-2-pyridyl]oxy]benzonitrile]",5.9
17,"CC(C)c1cc(Oc2ccc(-n3c(=O)[nH]c4cccnc43)cc2F)ccc1C#N [Example 17, 4-[2-fluoro-4-(2-oxo-1H-imidazo[4,5-b]pyridin-3-yl)phenoxy]-2-isopropyl-benzonitrile]",4.7

row,SMILES,EC50 [µM]
1,"CC(C)c1cc(Oc2ccc(-n3c(=O)[nH]c4cncnc43)cc2F)ccc1C#N [Example 18, 4-[2-fluoro-4-(8-oxo-7H-purin-9-yl)phenoxy]-2-isopropyl-benzonitrile]",18.8
2,"CC(C)c1cc(Oc2ccc(-n3c(=O)[nH]c4ccccc43)cn2)ccc1C#N [Example 19, 2-isopropyl-4-[[5-(2-oxo-3H-benzimidazol-1-yl)-2-pyridyl]oxy]benzonitrile]",15.6
3,"CC(C)(C)c1cc(C#N)ccc1Oc1ccc(-n2c(=O)[nH]c3ccccc32)cn1 [Example 20, 3-tert-butyl-4-[[5-(2-oxo-3H-benzimidazol-1-yl)-2-pyridyl]oxy]benzonitrile]",12.2
4,"CCc1cc(Oc2ccc(-n3c(=O)[nH]c4ccccc43)cn2)ccc1C#N [Example 21, 2-ethyl-4-[[5-(2-oxo-3H-benzimidazol-1-yl)-2-pyridyl]oxy]benzonitrile]",18.5
5,"CC(C)Oc1cc(Oc2ccc(-n3c(=O)[nH]c4ccccc43)cn2)ccc1C#N [Example 22, 2-isopropoxy-4-[[5-(2-oxo-3H-benzimidazol-1-yl)-2-pyridyl]oxy]benzonitrile]",20.7
6,"O=c1[nH]c2ccccc2n1-c1ccc(Oc2cccc3c2C2(CC2)CO3)c(F)c1 [Example 23, 3-(3-fluoro-4-spiro[2H-benzofuran-3,1′-cyclopropane]-4-yloxy-phenyl)-1H-benzimidazol-2-one]",3.5
7,"CC(C)(C)c1cc(C#N)ccc1Oc1ccc(-n2c(=O)[nH]c3cncnc32)cn1 [Example 24, 3-tert-butyl-4-[[5-(8-oxo-7H-purin-9-yl)-2-pyridyl]oxy]benzonitrile]",4
8,"CC(C)(C)c1cc(C#N)ccc1Oc1ccc(-n2c(=O)[nH]c3cnccc32)cn1 [Example 26, 3-tert-butyl-4-[[5-(2-oxo-3H-imidazo[4,5-c]pyridin-1-yl)-2-pyridyl]oxy]benzonitrile]",4.7
9,"CC(C)(C)c1cc(C#N)ccc1Oc1ccc(-n2c(=O)[nH]c3cc(F)cnc32)cn1 [Example 27, 3-tert-butyl-4-[[5-(6-fluoro-2-oxo-1H-imidazo[4,5-b]pyridin-3-yl)-2-pyridyl]oxy]benzonitrile]",5.5
10,"COc1cc(Oc2ccc(-n3c(=O)[nH]c4cc(Cl)cnc43)cn2)ccc1C [Example 28, 6-chloro-3-[6-(3-methoxy-4-methyl-phenoxy)-3-pyridyl]-1H-imidazo[4,5-b]pyridin-2-one]",10
11,"COc1cc(Oc2ccc(-n3c(=O)[nH]c4cc(C(F)(F)F)cnc43)cn2)ccc1C [Example 29, 3-[6-(3-methoxy-4-methyl-phenoxy)-3-pyridyl]-6-(trifluoromethyl)-1H-imidazo[4,5-b]pyridin-2-one]",5.7
12,"COc1cc(Oc2ccc(-n3c(=O)[nH]c4ncccc43)cn2)ccc1C [Example 30, 1-[6-(3-methoxy-4-methyl-phenoxy)-3-pyridyl]-3H-imidazo[4,5-b]pyridin-2-one]",19.2
13,"COc1cc(Oc2ccc(-n3c(=O)[nH]c4ccncc43)cn2)ccc1C [Example 31, 3-[6-(3-methoxy-4-methyl-phenoxy)-3-pyridyl]-1H-imidazo[4,5-c]pyridin-2-one]",21
14,"COc1cc(Oc2ccc(-n3c(=O)[nH]c4cnccc43)cn2)ccc1C [Example 32, 1-[6-(3-methoxy-4-methyl-phenoxy)-3-pyridyl]-3H-imidazo[4,5-c]pyridin-2-one]",4.4
15,"COc1cc(Oc2ccc(-n3c(=O)[nH]c4cccnc43)cn2)ccc1C [Example 33, 3-[6-(3-methoxy-4-methyl-phenoxy)-3-pyridyl]-1H-imidazo[4,5-b]pyridin-2-one]",3.4
16,"COc1cc(Oc2ccc(-n3c(=O)[nH]c4ccccc43)cn2)ccc1C [Example 34, 3-[6-(3-methoxy-4-methyl-phenoxy)-3-pyridyl]-1H-benzimidazol-2-one]",5.2

# Same assay, conditions: HEK-293 cell line stably expressing Kv3.1; automated patch clamp; 10 min incubation; read-out: EC50 Kv3.1
row,SMILES,EC50 [µM]
1,"Cc1ccc(Oc2ccc(-n3c(=O)[nH]c4cncnc43)cn2)cc1OC(F)(F)F [Example 25, 9-[6-[4-methyl-3-(trifluoromethoxy)phenoxy]-3-pyridyl]-7H-purin-8-one]",5.9
